The target of assay [1] is T1, Metallo-beta-lactamase AIM-1 (Pseudomonas aeruginosa, UniProt B5DCA0).
T1 sequence (B5DCA0 whole entry): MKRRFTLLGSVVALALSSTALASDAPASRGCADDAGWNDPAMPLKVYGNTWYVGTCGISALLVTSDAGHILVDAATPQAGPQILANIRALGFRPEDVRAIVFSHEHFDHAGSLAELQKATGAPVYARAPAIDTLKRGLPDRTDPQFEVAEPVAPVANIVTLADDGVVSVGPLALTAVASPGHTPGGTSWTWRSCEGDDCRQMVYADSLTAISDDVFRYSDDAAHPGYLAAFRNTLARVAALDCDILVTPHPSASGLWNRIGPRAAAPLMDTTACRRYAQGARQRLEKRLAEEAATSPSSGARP
Put plainly: Competitive inhibition of Pseudomonas aeruginosa recombinant AIM1 expressed in Escherichia coli BL21(DE3) using cefuroxime as substrate by UV/Vis multi-plate spectrophotometric method.

Assay [2] deals with Metallo-beta-lactamase type 2 (Aeromonas hydrophila, UniProt P26918). Put plainly: Competitive inhibition of Aeromonas hydrophila recombinant CphA expressed in Escherichia coli BL21(DE3) using meropenem as substrate by UV/Vis multi-plate spectrophotometric method.
Sequence of Metallo-beta-lactamase type 2 (P26918 whole entry): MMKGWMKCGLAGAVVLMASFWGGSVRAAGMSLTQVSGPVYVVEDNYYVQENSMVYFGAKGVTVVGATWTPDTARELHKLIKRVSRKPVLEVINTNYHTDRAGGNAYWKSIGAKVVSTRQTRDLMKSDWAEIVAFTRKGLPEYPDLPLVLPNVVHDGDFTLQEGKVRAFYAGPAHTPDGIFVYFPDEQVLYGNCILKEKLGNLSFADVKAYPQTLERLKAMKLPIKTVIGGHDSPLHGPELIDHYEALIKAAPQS

With `N#Cc1c(-c2ccccc2)c(-c2ccccc2)n(Cc2ccccc2)c1N`, the Ki amounted to 2200 nM in assay [1] and 52 µM in assay [2]. Regarding `N#Cc1c(-c2ccccc2)c(-c2ccccc2)n(Cc2ccccc2)c1NC(=O)c1ccccc1`, the Ki in assay [1] was found to be 1600 nM; in assay [2], 11 µM. With `N#Cc1c(-c2ccccc2)c(-c2ccccc2)n(Cc2ccccc2)c1NC(=O)c1ccc([N+](=O)[O-])cc1`, the inhibitory constant (Ki) in assay [1] amounted to 10900 nM.

Turning to `N#Cc1c(-c2ccccc2)c(-c2ccccc2)n(Cc2ccccc2)c1NC(=O)c1ccc(C(=O)c2ccccc2)cc1`, the Ki in assay [2] is 872 µM.

By Ki is commonly meant the dissociation constant of the complex between target and ligand, obtained from inhibition or displacement.

The record behind these values is BindingDB's records for doi:10.1016/j.ejmech.2017.05.061 (The University of Queensland, 2017).
